Tests used:
native Axl [1] = biological target: T1, native Axl (Homo sapiens, UniProt P30530); experiment: Gas6-inducible phosphorylation of native Axl in MDA-MB-231 cells (immunoblot); assay type: cell-based; conditions: MBA-MD-231 breast cancer cell line, FIG. 5A
T1 construct: Gas6-inducible phosphorylation of native Axl (pAxl); endogenous in cells; host or cells: MDA-MB-231
T1 sequence (P30530 26-894): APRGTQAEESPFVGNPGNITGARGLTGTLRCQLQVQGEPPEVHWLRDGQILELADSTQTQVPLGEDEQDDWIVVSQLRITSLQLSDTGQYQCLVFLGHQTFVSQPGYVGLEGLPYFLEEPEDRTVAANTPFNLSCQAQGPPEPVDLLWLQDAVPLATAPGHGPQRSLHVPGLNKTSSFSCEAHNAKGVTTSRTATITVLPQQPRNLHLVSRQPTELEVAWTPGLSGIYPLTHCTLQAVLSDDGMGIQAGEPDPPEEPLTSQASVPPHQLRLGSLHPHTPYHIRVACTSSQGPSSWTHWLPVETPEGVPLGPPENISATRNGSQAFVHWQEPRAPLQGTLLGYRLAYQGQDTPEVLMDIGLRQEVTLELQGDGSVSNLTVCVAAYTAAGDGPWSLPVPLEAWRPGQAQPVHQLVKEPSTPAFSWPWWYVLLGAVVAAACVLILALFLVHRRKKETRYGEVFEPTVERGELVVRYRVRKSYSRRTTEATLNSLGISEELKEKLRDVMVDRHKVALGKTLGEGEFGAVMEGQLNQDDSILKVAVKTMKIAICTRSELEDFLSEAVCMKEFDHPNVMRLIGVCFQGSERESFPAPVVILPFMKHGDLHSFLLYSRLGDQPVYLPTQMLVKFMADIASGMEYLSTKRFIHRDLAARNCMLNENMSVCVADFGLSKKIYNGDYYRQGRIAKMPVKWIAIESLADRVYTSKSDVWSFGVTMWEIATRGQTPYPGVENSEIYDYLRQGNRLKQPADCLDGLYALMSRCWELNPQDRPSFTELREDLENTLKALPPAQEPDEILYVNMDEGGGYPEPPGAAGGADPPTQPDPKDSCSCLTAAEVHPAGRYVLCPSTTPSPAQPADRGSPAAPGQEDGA
Method: (§1) Stable hAxl/IFN-γR1 CHO reporter cell lines (containing human Axl extracellular domains and transmembrane and intracellular domains of human IFN-γR1) were serum starved for 5 hrs±small molecule inhibitors and then stimulated with human Gas6 conditioned media±small molecule inhibitors for 30 minutes. For H1299 human non-small cell lung carcinoma and MDA-MB-231 human breast adenocarcinoma cell lines, the cells were serum starved overnight±small molecule inhibitors and stimulated with human Gas6 conditioned media±small molecule inhibitors for 30 minutes. Whole cell lysates of hAxl/IFN-γR1, H1299 and MDA-MB-231 cells were prepared using HNTG buffer (20 mM HEPES, pH 7.5, 150 mM NaCl, 10% glycerol, 1% Triton X-100, 1 mM PMSF, 1 mM Na3VO4, 10 mM Na2MoO4, 1 mM EDTA, 10 mM NaF and 20 μg/mL aprotinin). The resulting lysates were resolved on SDS-PAGE gel and immunoblotted with respective antibodies.
(§2) Immunoblot data were obtained within a linear range of exposure, and intensities were quantified by ImageJ. The levels of hAxl/IFN-γR1 cells lines activation were measured by pSTAT1 whereas the levels of H1299 and MDA-MB-231 cell lines activation were measured by pAxl signal intensities. Blots were normalized to intensities of respective β-actin or GAPDH protein loading controls. […]

native Axl [2] = biological target: T1, native Axl; experiment: Gas6-inducible phosphorylation of native Axl in H1299 cells (immunoblot); assay type: cell-based; conditions: H1299 lung cancer cell line, FIG. 5B
Method: as §1, §2

MDA-MB-231 cells = experiment: Real-time migration assay (RTCA DP Xcelligence), MDA-MB-231; assay type: cell-based, human; conditions: Gas6-inducible MDA-MB-231 cells
Method: (§3) H1299 and MDA-MB-231 cells lines were seeded in complete medium and allowed to attain ˜80% confluence and then serum starved overnight in medium containing 0.5% FBS. The cells were then detached by Accutase (Sigma), counted and resuspended in serum-free RPMI-1640 medium. In the lower chamber of the CIM plate, 1×RPMI-1640 containing 10% FBS was added as a chemoattractant. In the top chamber, 50 μl of 1×RPMI-1640 was added to all wells. Both chambers were assembled, loaded in the Xcelligence system, and run for 30 min for equilibration or background readings. One hundred microliters of each cell line suspended in 1×RPMI-1640 (40,000 cells/100 μl)±Gas6±small molecule inhibitors then were added in triplicates in upper chamber wells. Readings for changes in the cell index (CI) were taken every 10 min for 24 h and migration was shown as a change in cell index versus time.

H1299 cells [3] = experiment: Real-time migration assay (RTCA DP Xcelligence), H1299; assay type: cell-based, human; conditions: Gas6-inducible H1299 cells
Method: as §3

H1299 cells [4] = experiment: Colony forming assay, H1299; assay type: cell-based, human; conditions: H1299 cultured in the presence of Gas6
Method: H1299 cells were plated in 6 well plates at a very low density (˜250 cells/well). Next day, the cells were treated with the SMIs at different concentrations. The cells were incubated with the drugs for 14 days. After 14 days, colonies were stained with 0.25% crystal violet in 95% ethanol. Colonies consisting of more than 50 cells were counted.

[5] = test system: H1299 lung cancer xenograft; experiment: Mouse xenograft study, human H1299 lung cancer; assay type: in vivo; conditions: for growth of tumor (tumor volume): 100 mg/kg IP
Method: (§4) 500,000 H1299 cells in 100 μl of PBS were injected subcutaneously into the right flank of 4-6 week NOD/SCIDg mice. Once tumors were palpable, the mice were randomized into 3 groups, each group had 6 mice: control mice were treated with vehicle (DMSO) intraperitoneally (IP) and the treatment groups with compound 1I (day 1, day 2, day 3 and day 4) or with compound 1Q (day 1, day 2, day 3, day 4, day 7 and day 8) at a dose of 100 mg/kg IP. Similar studies were conducted on compound 1Q dosed at 300 mg/kg in mice. Tumor size and body weights were measured three times a week and the tumor volume calculated.
Finally, based on the promising in vitro and cell culture experiments showing anti-Axl activity of certain compounds, the in vivo efficacies of compound 1I and compound 1Q using a murine SCID/human H1299 lung cancer xenograft model was investigated (FIG. 7A-E). As indicated, SCID mice were subcutaneously injected with 250,000 tumor cells in the hind flanks with human H1299 cells until palpable tumors were present. Subsequently, mice were injected every two days with vehicle, compound 1I or compound 1Q at a concentration of 100 mg/kg for up to 2 weeks. […] Taken together, these studies support the further development of TAM Ig1 inhibitors as anti-cancer therapeutics (FIGS. 7A-E).

[6] = Toxicity and body weight in xenograft mice; assay type: in vivo; conditions: for body weights: 100 mg/kg, versus vehicle; for toxicity in cell culture or in vivo: up to highest dose tested 300 mg/kg IP
Method: as §4

Which results are given for Cc1noc(C)c1CSc1ccccc1C(=O)N1CCN(c2cccc(C(F)(F)F)c2)CC1 [1I]?
inhibition of activation (phosphorylation) of Axl (native Axl [1]): potent inhibition; inhibition of activation (phosphorylation) of Axl (native Axl [2]): potent inhibition; motility (real-time, cell index) (MDA-MB-231 cells): suppressed motility; motility (real-time, cell index) (H1299 cells [3]): suppressed motility; clonogenic growth (H1299 cells [4]): suppressed clonogenic growth; growth of tumor (tumor volume) [5]: significantly suppressed growth of tumor; body weights [6]: not significantly different; toxicity in cell culture or in vivo [6]: Neither compound 1I nor compound 1Q showed notable toxicity

With Cc1cc(CSc2ccccc2C(=O)NCCNc2ccc(C(F)(F)F)cc2[N+](=O)[O-])on1 [1Q] as the compound, how does the “inhibition of activation (phosphorylation) of Axl” value (native Axl [1]) read?
Its value is “potent inhibition”.

And the “inhibition of activation (phosphorylation) of Axl” value (native Axl [2])?
The value was “potent inhibition”.

And the “motility (real-time, cell index)” value (MDA-MB-231 cells)?
The value was “suppressed motility”.

What about the “motility (real-time, cell index)” value (H1299 cells [3]) of the same compound?
The value was “suppressed motility”.

And the clonogenic growth (H1299 cells [4])?
The clonogenic growth was “suppressed clonogenic growth”.

And the “growth of tumor (tumor volume)” value [5]?
Its value is “significantly suppressed growth of tumor”.

And the “tumor growth (volume)” value ([5]; 300 mg/kg IP)?
Its value is “suppress tumor growth”.

What about the body weights [6] of the same compound?
The body weights was “not significantly different”.

What about the “toxicity in cell culture or in vivo” value [6] of the same compound?
The value was “Neither compound 1I nor compound 1Q showed notable toxicity”.
